These are literature values, as cited in EP4302755B1, “PALBOCICLIB FORMULATION CONTAINING AN AMINO ACID” (Lotus Pharmaceutical Co., Ltd., priority 2022, dated 2024).

For data set [1] the following is noted: at low pH (2.1-4.5).

Like-named read-outs stand apart in the source and are kept apart here.

For the molecule `CC(=O)c1c(C)c2cnc(Nc3ccc(N4CCNCC4)cn3)nc2n(C2CCCC2)c1=O` [Palbociclib], the pKa reads like this: (the pyridine nitrogen) about 4.1; (the secondary piperazine nitrogen) “approximately 7.3”. Besides, the solubility entry in data set [1] was “water soluble”.
